Measurements: patent US20110105326A1, “Method for Enhancing the Rainfastness of Glyphosate” (BASF SE, priority 2008, published 2011)

Legend:
Type in all cases: in vivo
[1] = tested on: Echinochloa colonum (ECHCO); test: herbicidal action with/without simulated rainfall after treatment, Echinochloa colonum; settings: 1500 g/ha diuron, 1080 g/ha glyphosate; for herbicidal action against Echinochloa colonum (ECHCO): control without simulated rainfall, Example 15.1
Experimental: (§1) The enhancement of the rainfastness of glyphosate was determined via the herbicidal activity of the mixture comprising glyphosate and the respective rainfastness enhancing herbicidal component B as well as of the single herbicidal components in relation to simulated rainfall at different time intervals.
(§2) The evaluation of the damage caused by the method and the compositions the according to the present invention and the single herbicidal components was carried out using a scale from 0 to 100%, compared to the untreated control plots. Here, 0 means no damage and 100 means complete destruction of the plants of a respective weed or crop species.
(§3) The application was performed with a fixed spayer system with air pressurization and with a tank spray volume of two liters. The speed of the spray device over the plants was adjusted for a spray volume of 200 I/ha. The spray device was a spray barr with four nozzles from the type Teejet XR 11002VS with a space of 50 cm between each nozzle.
(§4) The application was performed at a weed stage of 6 to 8 leaves. After the application of the formulated herbicides the leaves were washed through rain of 20 mm using a fixed rain simulator system at following time interval: 15 min, 30 min, 1, 2, 3, 4 and 6 hours after treatment.

[2] = tested on: Ipomoea grandifolia (IPOGR); test: herbicidal action with/without simulated rainfall after treatment, Ipomoea grandifolia; settings: 1500 g/ha diuron, 1080 g/ha glyphosate; for herbicidal action against Ipomoea grandifolia (IPOGR): control without simulated rainfall, Example 16.1
Experimental: as §1, §2, §3, §4

[3] = tested on: Brachiaria decumbens (BRADE); test: herbicidal action with/without simulated rainfall after treatment, Brachiaria decumbens; settings: 1500 g/ha diuron, 1080 g/ha glyphosate; for herbicidal action against Brachiaria decumbens (BRADE): control without simulated rainfall, Example 17.1
Experimental: as §1, §2, §3, §4

How did the “herbicidal action against Echinochloa colonum (ECHCO)” value (“herbicidal action … (ECHCO)” below) ([1]; 1 DAA) turn out when `CN(C)C(=O)Nc1ccc(Cl)c(Cl)c1` [Diuron, diuron] was run?
Its value is 0.

And the “herbicidal action … (ECHCO)” value ([1]; 2 DAA)?
The value was 0.

What about the “herbicidal action … (ECHCO)” value ([1]; 3 DAA) of the same compound?
The value was 2.66.

And the “herbicidal action … (ECHCO)” value ([1]; 7 DAA)?
The value was 61.

And the “herbicidal action against ECHCO” value ([1]; simulated rainfall 30 min after treatment, 1 DAA, Example 15.2)?
Its value is 0.

And the “herbicidal action against ECHCO” value ([1]; simulated rainfall 30 min after treatment, 2 DAA, Example 15.2)?
The value was 0.

What about the “herbicidal action against ECHCO” value ([1]; simulated rainfall 30 min after treatment, 3 DAA, Example 15.2) of the same compound?
The value was 6.

And the “herbicidal action against ECHCO” value ([1]; simulated rainfall 30 min after treatment, 7 DAA, Example 15.2)?
The value was 75.33.

And the “herbicidal action against ECHCO” value ([1]; simulated rainfall 2 hours after treatment, 1 DAA, Example 15.3)?
The value was 0.

And the “herbicidal action against ECHCO” value ([1]; simulated rainfall 2 hours after treatment, 2 DAA, Example 15.3)?
Its value is 0.

And the “herbicidal action against ECHCO” value ([1]; simulated rainfall 2 hours after treatment, 3 DAA, Example 15.3)?
The value was 1.66.

And the “herbicidal action against ECHCO” value ([1]; simulated rainfall 2 hours after treatment, 7 DAA, Example 15.3)?
Its value is 58.33.

What about the “herbicidal action against Ipomoea grandifolia (IPOGR)” value (“herbicidal action … (IPOGR)” below) ([2]; 1 DAA) of the same compound?
The value was 0.

What about the “herbicidal action … (IPOGR)” value ([2]; 2 DAA) of the same compound?
Its value is 0.

What about the “herbicidal action … (IPOGR)” value ([2]; 3 DAA) of the same compound?
The value was 1.33.

And the “herbicidal action … (IPOGR)” value ([2]; 7 DAA)?
Its value is 7.33.

What about the “herbicidal action against IPOGR” value ([2]; simulated rainfall 15 min after treatment, 1 DAA, Example 16.2) of the same compound?
Its value is 0.

And the “herbicidal action against IPOGR” value ([2]; simulated rainfall 15 min after treatment, 2 DAA, Example 16.2)?
Its value is 1.

And the “herbicidal action against IPOGR” value ([2]; simulated rainfall 15 min after treatment, 3 DAA, Example 16.2)?
Its value is 3.33.

And the “herbicidal action against IPOGR” value ([2]; simulated rainfall 15 min after treatment, 7 DAA, Example 16.2)?
The value was 21.

And the “herbicidal action against IPOGR” value ([2]; simulated rainfall 30 min after treatment, 1 DAA, Example 16.3)?
The value was 0.

What about the “herbicidal action against IPOGR” value ([2]; simulated rainfall 30 min after treatment, 2 DAA, Example 16.3) of the same compound?
The value was 0.

And the “herbicidal action against IPOGR” value ([2]; simulated rainfall 30 min after treatment, 3 DAA, Example 16.3)?
Its value is 3.

And the “herbicidal action against IPOGR” value ([2]; simulated rainfall 30 min after treatment, 7 DAA, Example 16.3)?
Its value is 16.66.

What about the “herbicidal action against IPOGR” value ([2]; simulated rainfall 2 hours after treatment, 1 DAA, Example 16.4) of the same compound?
Its value is 0.

What about the “herbicidal action against IPOGR” value ([2]; simulated rainfall 2 hours after treatment, 2 DAA, Example 16.4) of the same compound?
Its value is 0.

And the “herbicidal action against IPOGR” value ([2]; simulated rainfall 2 hours after treatment, 3 DAA, Example 16.4)?
The value was 0.33.

What about the “herbicidal action against IPOGR” value ([2]; simulated rainfall 2 hours after treatment, 7 DAA, Example 16.4) of the same compound?
Its value is 11.66.

And the “herbicidal action against IPOGR” value ([2]; simulated rainfall 6 hours after treatment, 1 DAA, Example 16.5)?
Its value is 0.

And the “herbicidal action against IPOGR” value ([2]; simulated rainfall 6 hours after treatment, 2 DAA, Example 16.5)?
The value was 1.

And the “herbicidal action against IPOGR” value ([2]; simulated rainfall 6 hours after treatment, 3 DAA, Example 16.5)?
The value was 2.

What about the “herbicidal action against IPOGR” value ([2]; simulated rainfall 6 hours after treatment, 7 DAA, Example 16.5) of the same compound?
Its value is 25.55.

And the “herbicidal action against Brachiaria decumbens (BRADE)” value (“herbicidal action … (BRADE)” below) ([3]; 1 DAA)?
Its value is 0.

And the “herbicidal action … (BRADE)” value ([3]; 2 DAA)?
Its value is 0.

What about the “herbicidal action … (BRADE)” value ([3]; 3 DAA) of the same compound?
Its value is 0.

And the “herbicidal action … (BRADE)” value ([3]; 7 DAA)?
The value was 11.

And the “herbicidal action … (BRADE)” value ([3]; 14 DAA)?
The value was 78.33.

And the “herbicidal action against BRADE” value ([3]; simulated rainfall 2 hours after treatment, 1 DAA, Example 17.2)?
Its value is 0.

And the “herbicidal action against BRADE” value ([3]; simulated rainfall 2 hours after treatment, 2 DAA, Example 17.2)?
Its value is 0.

And the “herbicidal action against BRADE” value ([3]; simulated rainfall 2 hours after treatment, 3 DAA, Example 17.2)?
The value was 0.

What about the “herbicidal action against BRADE” value ([3]; simulated rainfall 2 hours after treatment, 7 DAA, Example 17.2) of the same compound?
The value was 56.

And the “herbicidal action against BRADE” value ([3]; simulated rainfall 2 hours after treatment, 14 DAA, Example 17.2)?
The value was 100.

What about the “herbicidal action against BRADE” value ([3]; simulated rainfall 6 hours after treatment, 1 DAA, Example 17.3) of the same compound?
The value was 0.

And the “herbicidal action against BRADE” value ([3]; simulated rainfall 6 hours after treatment, 2 DAA, Example 17.3)?
Its value is 0.

And the “herbicidal action against BRADE” value ([3]; simulated rainfall 6 hours after treatment, 3 DAA, Example 17.3)?
Its value is 0.

What about the “herbicidal action against BRADE” value ([3]; simulated rainfall 6 hours after treatment, 7 DAA, Example 17.3) of the same compound?
Its value is 30.

And the “herbicidal action against BRADE” value ([3]; simulated rainfall 6 hours after treatment, 14 DAA, Example 17.3)?
The value was 100.
